{"source": "paper doi:10.1101/2025.07.02.662867v1", "about": "(bioRxiv, 2025)", "key": {"[1]": {"conditions": "typical dose of 0.5 to 1 mg; cited from earlier work"}, "[2]": {"assay": "24-hour IV pharmacokinetic study in T2D rat model", "set-up": "species or system STZ/NA diabetic)", "conditions": "male, Sprague Dawley, in vivo"}, "[3]": {"system": "type 2-like diabetic male rats", "assay": "Blood glucose and body weight over 6 weeks in diabetic rats", "assay_type": "in vivo, rat (male Sprague Dawley, STZ/NA diabetic)", "conditions": "hydrogel vs daily bolus"}}, "data": [{"smiles": "CC[C@H](C)[C@H](NC(=O)[C@H](Cc1ccccc1)NC(=O)[C@H](CCC(=O)O)NC(=O)[C@H](CCCCNC(=O)COCCOCCNC(=O)COCCOCCNC(=O)CC[C@H](NC(=O)CCCCCCCCCCCCCCCCC(=O)O)C(=O)O)NC(=O)[C@H](C)NC(=O)[C@H](C)NC(=O)[C@H](CCC(N)=O)NC(=O)CNC(=O)[C@H](CCC(=O)O)NC(=O)[C@H](CC(C)C)NC(=O)[C@H](Cc1ccc(O)cc1)NC(=O)[C@H](CO)NC(=O)[C@H](CO)NC(=O)[C@@H](NC(=O)[C@H](CC(=O)O)NC(=O)[C@H](CO)NC(=O)[C@@H](NC(=O)[C@H](Cc1ccccc1)NC(=O)[C@@H](NC(=O)CNC(=O)[C@H](CCC(=O)O)NC(=O)C(C)(C)NC(=O)[C@@H](N)Cc1cnc[nH]1)[C@@H](C)O)[C@@H](C)O)C(C)C)C(=O)N[C@@H](C)C(=O)N[C@@H](Cc1c[nH]c2ccccc12)C(=O)N[C@@H](CC(C)C)C(=O)N[C@H](C(=O)N[C@@H](CCCNC(=N)N)C(=O)NCC(=O)N[C@@H](CCCNC(=N)N)C(=O)NCC(=O)O)C(C)C", "note": "[Sema, semaglutide]", "values": [{"measurement": "half-life in humans", "setting": "[1]", "value": 170, "unit": "h"}]}, {"smiles": "CC[C@H](C)[C@H](NC(=O)[C@H](CC(C)C)NC(=O)[C@H](Cc1c[nH]c2ccccc12)NC(=O)[C@H](CCC(N)=O)NC(=O)[C@@H](NC(=O)[C@H](Cc1ccccc1)NC(=O)[C@H](C)NC(=O)[C@H](CCCCNC(=O)COCCOCCNC(=O)COCCOCCNC(=O)CC[C@H](NC(=O)CCCCCCCCCCCCCCCCCCC(=O)O)C(=O)O)NC(=O)[C@H](CCC(N)=O)NC(=O)[C@H](C)NC(=O)[C@@H](NC(=O)[C@H](CCCCN)NC(=O)[C@H](CC(=O)O)NC(=O)[C@H](CC(C)C)NC(=O)C(C)(C)NC(=O)[C@@H](NC(=O)[C@H](CO)NC(=O)[C@H](Cc1ccc(O)cc1)NC(=O)[C@H](CC(=O)O)NC(=O)[C@H](CO)NC(=O)[C@@H](NC(=O)[C@H](Cc1ccccc1)NC(=O)[C@@H](NC(=O)CNC(=O)[C@H](CCC(=O)O)NC(=O)C(C)(C)NC(=O)[C@@H](N)Cc1ccc(O)cc1)[C@@H](C)O)[C@@H](C)O)[C@@H](C)CC)[C@@H](C)CC)C(C)C)C(=O)N[C@@H](C)C(=O)NCC(=O)NCC(=O)N1CCC[C@H]1C(=O)N[C@@H](CO)C(=O)N[C@@H](CO)C(=O)NCC(=O)N[C@@H](C)C(=O)N1CCC[C@H]1C(=O)N1CCC[C@H]1C(=O)N1CCC[C@H]1C(=O)N[C@@H](CO)C(N)=O", "note": "[TZP, tirzepatide]", "values": [{"measurement": "half-life", "setting": "[2]", "value": "3.87 ± 0.63", "unit": "h"}, {"measurement": "body weight outcome", "setting": "[3]", "value": "noticeable weight loss in some animals"}]}]}
